Test results as given in PubChem BioAssay (NCI).
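Grown in 96-well plates, cells were treated for 48 hours with each compound at five concentrations. Insufficient inhibition: endpoint recorded as highest concentration tested. Abbreviation: GI50, concentration required for 50% inhibition of growth. The concentration for full growth arrest is given as TGI.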

Assays:
Test in all cases: DTP human tumour cell line panel, 48 h
[1] = test system: TK-10 renal
[2] = test system: HS 578T breast
[3] = test system: MDA-MB-231 breast
[4] = test system: MDA-MB-435
[5] = test system: HT29 colon
[6] = test system: M14 melanoma
[7] = test system: EKVX NSCLC
[8] = test system: BT-549 breast
[9] = test system: NCI-H226 lung
[10] = test system: UACC-257 melanoma
[11] = test system: RPMI-8226 leukemia
[12] = test system: UACC-62 melanoma
[13] = test system: 786-0 renal
[14] = test system: T-47D breast
[15] = test system: SN12C renal
[16] = test system: OVCAR-3 ovarian
[17] = test system: ACHN renal
[18] = test system: HL-60(TB) leukemia
[19] = test system: HCC-2998 colon
[20] = test system: HOP-92 NSCLC
[21] = test system: IGROV1 ovarian
[22] = test system: U251 CNS
[23] = test system: KM12 colon
[24] = test system: MOLT-4 leukemia
[25] = test system: COLO 205 colon
[26] = test system: CAKI-1 renal
[27] = test system: SNB-19 CNS
[28] = test system: DU-145 prostate
[29] = test system: NCI-H522 lung
[30] = test system: NCI-H460 lung
[31] = test system: LOX IMVI melanoma
[32] = test system: RXF 393 renal
[33] = test system: SK-MEL-28 melanoma
[34] = test system: MALME-3M melanoma
[35] = test system: A498 renal
[36] = test system: SK-OV-3 ovarian
[37] = test system: K-562 leukemia
[38] = test system: MCF7 breast
[39] = test system: SNB-75 CNS
[40] = test system: SK-MEL-5 melanoma
[41] = test system: PC-3 prostate
[42] = test system: SF-295 CNS
[43] = test system: HCT-15 colon
[44] = test system: OVCAR-4 ovarian
[45] = test system: SF-268 CNS
[46] = test system: OVCAR-8 ovarian
[47] = test system: SF-539 CNS
[48] = test system: NCI-H23 lung
[49] = test system: SK-MEL-2 melanoma
[50] = test system: HOP-62 NSCLC
[51] = test system: A549 NSCLC
[52] = test system: OVCAR-5 ovarian
[53] = test system: SW-620 colon
[54] = test system: HCT-116 colon
[55] = test system: UO-31 renal
[56] = test system: NCI/ADR-RES ovarian
[57] = test system: CCRF-CEM leukemia
[58] = test system: SR leukemia

## Fc1c[c-]c(-c2ccccn2)c(F)c1.[CH3-].[Pt+2].c1ccc(P(C[PH+](c2ccccc2)c2ccccc2)c2ccccc2)cc1
[1]
  GI50: 991 nM
  TGI: 3390 nM
[2]
  GI50: 864 nM
  TGI: 2900 nM
[3]
  GI50: 724 nM
  TGI: 1780 nM
[4]
  GI50: 795 nM
  TGI: 2080 nM
[5]
  GI50: 500 nM
  TGI: 3730 nM
[6]
  GI50: 710 nM
  TGI: 2310 nM
[7]
  GI50: 495 nM
  TGI: 1960 nM
[8]
  GI50: 492 nM
  TGI: 1490 nM
[9]
  GI50: 559 nM
  TGI: 2090 nM
[10]
  GI50: 696 nM
  TGI: 2930 nM
[11]
  GI50: 262 nM
  TGI: 1870 nM
[12]
  GI50: 545 nM
  TGI: 1890 nM
[13]
  GI50: 750 nM
  TGI: 1650 nM
[14]
  GI50: 474 nM
  TGI: 3270 nM
[15]
  GI50: 502 nM
  TGI: 1770 nM
[16]
  GI50: 411 nM
  TGI: 1200 nM
[17]
  GI50: 792 nM
  TGI: 1490 nM
[18]
  GI50: 380 nM
  TGI: 1560 nM
[19]
  GI50: 484 nM
  TGI: 1290 nM
[20]
  GI50: 512 nM
  TGI: 1340 nM
[21]
  GI50: 470 nM
  TGI: 1860 nM
[22]
  GI50: 347 nM
  TGI: 1060 nM
[23]
  GI50: 421 nM
  TGI: 1250 nM
[24]
  GI50: 825 nM
  TGI: 5810 nM
[25]
  GI50: 485 nM
  TGI: 2070 nM
[26]
  GI50: 869 nM
  TGI: 1960 nM
[27]
  GI50: 403 nM
  TGI: 1320 nM
[28]
  GI50: 1060 nM
  TGI: 6470 nM
[29]
  GI50: 960 nM
  TGI: 3160 nM
[30]
  GI50: 591 nM
  TGI: 1540 nM
[31]
  GI50: 539 nM
  TGI: 1280 nM
[32]
  GI50: 702 nM
  TGI: 1490 nM
[33]
  GI50: 512 nM
  TGI: 1520 nM
[34]
  GI50: 342 nM
  TGI: 919 nM
[35]
  GI50: 712 nM
  TGI: 1580 nM
[36]
  GI50: 816 nM
  TGI: 6030 nM
[37]
  GI50: 365 nM
  TGI: 6950 nM
[38]
  GI50: 577 nM
  TGI: 2980 nM
[39]
  GI50: 967 nM
  TGI: 4140 nM
[40]
  GI50: 714 nM
  TGI: 1370 nM
[41]
  GI50: 373 nM
  TGI: 1530 nM
[42]
  GI50: 708 nM
  TGI: 1820 nM
[43]
  GI50: 975 nM
  TGI: 2250 nM
[44]
  GI50: 610 nM
  TGI: 3710 nM
[45]
  GI50: 860 nM
  TGI: 6880 nM
[46]
  GI50: 630 nM
  TGI: 5760 nM
[47]
  GI50: 838 nM
  TGI: 1620 nM
[48]
  GI50: 563 nM
  TGI: 1990 nM
[49]
  GI50: 695 nM
  TGI: 1890 nM
[50]
  GI50: 932 nM
  TGI: 3710 nM
[51]
  GI50: 393 nM
  TGI: 4700 nM
[52]
  GI50: 980 nM
  TGI: 2540 nM
[53]
  GI50: 520 nM
  TGI: 1490 nM
[54]
  GI50: 494 nM
  TGI: 1290 nM
[55]
  GI50: 731 nM
  TGI: 1410 nM
[56]
  GI50: 2530 nM
  TGI: 11900 nM

## Cc1c(C(=O)OCc2ccccc2)[n+](=O)c2cc(F)c(F)cc2n1[O-]
[1]
  TGI: 37700 nM
[57]
  TGI: > 100000 nM
[2]
  TGI: 2970 nM
[4]
  TGI: 3940 nM
[8]
  TGI: 3620 nM
[9]
  TGI: 6740 nM
[10]
  TGI: 4000 nM
[11]
  TGI: > 100000 nM
[13]
  TGI: > 100000 nM
[14]
  TGI: 4860 nM
[17]
  TGI: 3850 nM
[18]
  TGI: 3530 nM
[19]
  TGI: 4680 nM
[21]
  TGI: 3300 nM
[23]
  TGI: 39400 nM
[24]
  TGI: 5500 nM
[25]
  TGI: 9620 nM
[26]
  TGI: 3920 nM
[27]
  TGI: 3870 nM
[29]
  TGI: 3960 nM
[30]
  TGI: 6600 nM
[33]
  TGI: 4070 nM
[34]
  TGI: 4480 nM
[35]
  TGI: 3120 nM
[37]
  TGI: > 100000 nM
[38]
  TGI: 6320 nM
[39]
  TGI: 4680 nM
[42]
  TGI: 4060 nM
[43]
  TGI: > 100000 nM
[44]
  TGI: 3530 nM
[45]
  TGI: 4530 nM
[47]
  TGI: 5750 nM
[48]
  TGI: 6270 nM
[49]
  TGI: 3510 nM
[50]
  TGI: > 100000 nM
[52]
  TGI: > 100000 nM
[58]
  TGI: 3190 nM
[54]
  TGI: > 100000 nM
[55]
  TGI: 3360 nM
[56]
  TGI: > 100000 nM
